Where two headings read alike, the source gives them in different places.
Columns and labels:
[1] = biological target: PI3Kγ (p110γ) Recombinant Human Protein (Homo sapiens (Human), UniProt P48736); assay: PI3K-γ Scintillation Proximity Assay; type: biochemical; details: 2 μM ATP, 20 μM PIP2, 13 nM PI3Kγ
Description: PI3K-γ Scintillation Proximity Assay
(§1) [γ-^33]ATP (10 mCi/mL) and Wheat Germ Agglutinin (WGA) YSi SPA Scintillation Beads was purchased from Perkin-Elmer (Waltham, Mass.). Lipid kinase substrate, D-myo-Phosphatidylinositol 4,5-bisphosphate (PtdIns(4,5)P2)D (+)-sn-1,2-di-O-octanoylglyceryl, 3-O-phospho linked (PIP2), CAS 204858-53-7, was purchased from Echelon Biosciences (Salt Lake City, Utah). PI3Kγ (p110γ) Recombinant Human Protein was purchased from Life technology (Grand Island, N.Y.). ATP, MgCl2, DTT, EDTA, MOPS and CHAPS were purchased from SigmaAldrich (St. Louis, Mo.).
The kinase reaction was conducted in polystyrene 384-well Greiner Bio-one white plate from Thermo Fisher Scientific in a final volume of 25 μL. Inhibitors were first diluted serially in DMSO and added to the plate wells before the addition of other reaction components. The final concentration of DMSO in the assay was 2%. The PI3Kγ assay was carried out at room temperature in 20 mM MOPS, pH 6.7, 10 mM MgCl2, 5 mM DTT and CHAPS 0.03%. Reactions were initiated by the addition of ATP, the final reaction mixture consisted of 20 μM PIP2, 2 μM ATP, 0.5 μCi [γ-^33P] ATP, 13 nM PI3Kγ. […] After the plate sealing, plates were shaken overnight at room temperature and centrifuged at 1500 rpm for 10 min, the radioactivity of the product was determined by scintillation counting on Topcount (Perkin-Elmer). […]

[2] = biological target: PI3Kδ (p110δ/p85α) Recombinant Human Protein (Homo sapiens (Human), UniProt O00329); assay: PI3Kδ Scintillation Proximity Assay; type: biochemical; details: 2 μM ATP, 20 μM PIP2, 3.4 nM PI3Kδ
Description: PI3Kδ Scintillation Proximity Assay
as §1, with “[γ-^33P]ATP” for “[γ-^33]ATP”, “PI3Kδ (p110δ/p85α)” for “PI3Kγ (p110γ)”, “Eurofins (St Charles, Mo.).” for “Life technology (Grand Island, N.Y.).”
The kinase reaction was conducted in polystyrene 384-well Greiner Bio-one white plate from Thermo Fisher Scientific in a final volume of 25 μL. Inhibitors were first diluted serially in DMSO and added to the plate wells before the addition of other reaction components. The final concentration of DMSO in the assay was 2%. The PI3Kδ assay was carried out at room temperature in 20 mM MOPS, pH 6.7, 10 mM MgCl2, 5 mM DTT and CHAPS 0.03%. Reactions were initiated by the addition of ATP, the final reaction mixture consisted of 20 μM PIP2, 2 μM ATP, 0.5 μCi [γ-^33P] ATP, 3.4 nM PI3Kδ. Reactions were incubated for 120 min and terminated by the addition of 40 μL SPA beads suspended in quench buffer: 163 mM potassium phosphate pH 7.8, 20% glycerol, 25 mM EDTA. The final concentration of SPA beads is 1.0 mg/mL. After the plate sealing, plates were shaken overnight at room temperature and centrifuged at 1500 rpm for 10 min, the radioactivity of the product was determined by scintillation counting on Topcount (PerkinElmer). IC50 determination was performed by fitting the curve of percent of the solvent control activity versus the log of the inhibitor concentration using the GraphPad Prism 6.0 software.

[3] = test system: Phosphorylated Ribosomal Protein S6 (RPS6) in THP-1 cells (PI3Kγ); assay: THP-1 RPS6 ELISA Assay; type: cell-based, Human; details: 10 nM MCP-1 for 15 minutes, Phospho-RPS6 ELISA, read-out: PI3Kγ_THP1_RPS6_ELISA IC50
Experimental: To measure the Phosphorylated Ribosomal Protein S6 (RPS6) in cell lysates, THP-1 cells (Human Acute Monocytic Leukemia) are purchased from ATCC (Manassas, Va.) and maintained in RPMI with 10% FBS (Gibco/Life Technologies, Carlsbad, Calif.). For the assay, THP-1 cells are serum starved overnight in RPMI, then plated in RPMI (2×10^5 cells/well in 90 μL) into 96-well flat-bottom tissue culture treated plates (Corning, Corning, N.Y.), in the presence or absence of a concentration range of test compounds. Covered plates are incubated for 2 hours at 37° C., 5% CO2 then treated with or without 10 nM MCP-1(MYBioSource, San Diego, Calif.) for 15 minutes at 37° C., 5% CO2. Plates are centrifuged at 1600 RPM and supernatants are removed. Cells are lysed in Lysis Buffer (Cell Signaling, Danvers, Mass.) with Protease Inhibitor (Calbiochem/EMD, Germany), PMSF (Sigma, St Louis Mo.), HALTS (Thermo Fisher, Rockford, Ill.) for 30 min on wet ice. Cell lysates are frozen at −80° C. before testing. The lysates are tested in the Human/Mouse/Rat Phospho-RPS6 ELISA (R&D Systems, Inc. Minn, Minn.). The plate is measured using a microplate reader (SpectraMax M5—Molecular Devices, LLC Sunnyvale, Calif.) set to 450 nm with a wavelength correction of 540. IC50 determination is performed by fitting the curve of inhibitor percent inhibition versus the log of the inhibitor concentration using the GraphPad Prism 5.0 software.

Chain of PI3Kδ (p110δ/p85α) Recombinant Human Protein (O00329 whole entry): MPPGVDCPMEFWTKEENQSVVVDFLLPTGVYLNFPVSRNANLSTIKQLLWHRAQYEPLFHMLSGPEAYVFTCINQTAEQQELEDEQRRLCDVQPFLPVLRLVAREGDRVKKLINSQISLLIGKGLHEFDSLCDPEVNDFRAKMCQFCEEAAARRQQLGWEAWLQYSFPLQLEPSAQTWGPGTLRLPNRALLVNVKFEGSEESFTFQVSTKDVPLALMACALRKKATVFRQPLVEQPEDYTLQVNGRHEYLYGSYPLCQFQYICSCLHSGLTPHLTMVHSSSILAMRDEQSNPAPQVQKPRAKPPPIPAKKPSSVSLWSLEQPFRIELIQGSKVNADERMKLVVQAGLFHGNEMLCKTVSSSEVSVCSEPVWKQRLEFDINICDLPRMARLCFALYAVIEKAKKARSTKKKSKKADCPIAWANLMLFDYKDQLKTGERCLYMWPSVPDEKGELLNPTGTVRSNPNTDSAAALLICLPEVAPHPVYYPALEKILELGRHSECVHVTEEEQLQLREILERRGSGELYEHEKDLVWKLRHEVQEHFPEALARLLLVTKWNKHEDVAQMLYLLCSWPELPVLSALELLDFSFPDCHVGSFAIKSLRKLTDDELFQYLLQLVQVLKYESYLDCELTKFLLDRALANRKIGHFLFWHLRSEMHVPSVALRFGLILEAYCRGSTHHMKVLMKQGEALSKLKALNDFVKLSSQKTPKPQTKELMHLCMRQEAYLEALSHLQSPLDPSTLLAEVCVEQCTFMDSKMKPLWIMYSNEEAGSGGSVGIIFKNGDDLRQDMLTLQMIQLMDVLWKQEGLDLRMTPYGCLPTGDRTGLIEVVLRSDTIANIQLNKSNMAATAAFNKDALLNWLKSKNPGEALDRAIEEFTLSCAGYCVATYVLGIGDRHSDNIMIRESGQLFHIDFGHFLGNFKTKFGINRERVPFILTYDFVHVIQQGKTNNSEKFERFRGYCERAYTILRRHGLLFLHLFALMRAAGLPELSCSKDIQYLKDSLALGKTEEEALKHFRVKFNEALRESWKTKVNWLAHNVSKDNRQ
Chain of PI3Kδ (p110δ/p85α) Recombinant Human Protein (P27986 whole entry partner): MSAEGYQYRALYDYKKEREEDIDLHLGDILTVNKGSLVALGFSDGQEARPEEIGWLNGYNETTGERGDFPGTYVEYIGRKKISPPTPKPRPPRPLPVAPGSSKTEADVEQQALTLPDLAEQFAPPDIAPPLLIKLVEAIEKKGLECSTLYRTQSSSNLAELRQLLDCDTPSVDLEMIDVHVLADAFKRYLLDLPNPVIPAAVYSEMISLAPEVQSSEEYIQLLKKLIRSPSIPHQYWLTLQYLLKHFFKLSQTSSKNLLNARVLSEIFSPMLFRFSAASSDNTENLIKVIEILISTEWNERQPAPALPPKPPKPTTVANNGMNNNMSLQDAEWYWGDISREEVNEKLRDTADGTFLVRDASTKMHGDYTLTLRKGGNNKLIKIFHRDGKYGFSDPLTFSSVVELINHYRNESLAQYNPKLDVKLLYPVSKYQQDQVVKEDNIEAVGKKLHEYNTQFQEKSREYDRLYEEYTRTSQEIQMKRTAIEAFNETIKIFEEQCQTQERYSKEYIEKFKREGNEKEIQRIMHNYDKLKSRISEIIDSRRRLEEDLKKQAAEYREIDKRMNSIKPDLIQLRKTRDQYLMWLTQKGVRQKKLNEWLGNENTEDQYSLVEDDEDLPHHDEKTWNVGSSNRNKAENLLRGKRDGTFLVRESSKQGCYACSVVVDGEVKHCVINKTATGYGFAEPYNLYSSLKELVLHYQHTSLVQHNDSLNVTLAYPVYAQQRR
Chain of PI3Kγ (p110γ) Recombinant Human Protein (P48736 whole entry): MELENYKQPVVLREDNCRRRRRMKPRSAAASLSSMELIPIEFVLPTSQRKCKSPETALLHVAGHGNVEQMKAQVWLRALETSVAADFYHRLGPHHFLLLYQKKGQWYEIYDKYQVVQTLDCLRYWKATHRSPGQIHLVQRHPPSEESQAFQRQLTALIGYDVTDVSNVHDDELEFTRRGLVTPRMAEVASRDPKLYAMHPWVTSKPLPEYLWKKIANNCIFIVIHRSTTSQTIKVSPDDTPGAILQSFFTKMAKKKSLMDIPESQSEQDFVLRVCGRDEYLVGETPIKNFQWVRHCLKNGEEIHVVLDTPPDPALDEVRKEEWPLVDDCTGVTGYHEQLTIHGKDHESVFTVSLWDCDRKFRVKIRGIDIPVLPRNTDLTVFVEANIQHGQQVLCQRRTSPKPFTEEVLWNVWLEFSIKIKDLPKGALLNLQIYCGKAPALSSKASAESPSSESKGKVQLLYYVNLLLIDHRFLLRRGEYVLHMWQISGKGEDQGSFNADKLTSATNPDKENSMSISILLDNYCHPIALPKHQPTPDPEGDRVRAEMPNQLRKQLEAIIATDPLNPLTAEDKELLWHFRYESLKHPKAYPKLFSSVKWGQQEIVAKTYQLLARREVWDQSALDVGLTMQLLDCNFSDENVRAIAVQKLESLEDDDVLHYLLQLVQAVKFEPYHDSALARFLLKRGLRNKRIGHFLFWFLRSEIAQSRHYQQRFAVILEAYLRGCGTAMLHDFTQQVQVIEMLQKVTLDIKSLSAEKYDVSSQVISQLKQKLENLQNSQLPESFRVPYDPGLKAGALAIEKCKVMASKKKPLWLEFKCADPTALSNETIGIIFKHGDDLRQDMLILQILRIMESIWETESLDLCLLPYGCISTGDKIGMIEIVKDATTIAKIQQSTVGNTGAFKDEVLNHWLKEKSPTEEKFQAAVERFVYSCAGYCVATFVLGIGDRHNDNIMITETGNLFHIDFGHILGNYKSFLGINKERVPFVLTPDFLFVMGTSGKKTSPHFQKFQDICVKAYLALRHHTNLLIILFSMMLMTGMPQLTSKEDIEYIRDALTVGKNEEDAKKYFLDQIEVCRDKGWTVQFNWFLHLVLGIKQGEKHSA

Row | Structure (SMILES) | IC50 [1] | IC50 [2] | IC50 ([3]; Homo sapiens, THP-1, 0.25 h) | IC50 [3]
1 | Cc1ccc(C(O)(C(N)=O)C(F)(F)F)cc1-c1cnc2c(N)nc(C(F)(F)F)cn12 (single isomer, unassigned) [Example 1, 2-(3-(8-Amino-6-(trifluoromethyl)imidazo[1,2-a]pyrazin-3-yl)-4-methylphenyl)-3,3,3-trifluoro-2-hydroxypropanamide] | < 100 nM | < 100 nM |  | 
2 | Cc1ccc(C(C)(O)C(F)(F)F)cc1-c1cnc2c(N)nc(C(=O)NCC(C)(C)O)cn12 (single isomer, unassigned) [Example 5, 8-Amino-N-(2-hydroxy-2-methylpropyl)-3-(2-methyl-5-(1,1,1-trifluoro-2-hydroxypropan-2-yl)phenyl)imidazo[1,2-a]pyrazine-6-carboxamide] |  | < 500 nM | > 1000 nM | 
3 | Cc1ccc(C(C)(O)C(F)(F)F)cc1-c1cnc2c(N)nc(C(=O)NCC(C)(C)O)cn12 (single isomer, unassigned) [Example 6, 8-Amino-N-(2-hydroxy-2-methylpropyl)-3-(2-methyl-5-(1,1,1-trifluoro-2-hydroxypropan-2-yl)phenyl)imidazo[1,2-a]pyrazine-6-carboxamide] |  | < 500 nM |  | < 500 nM
4 | [2H]C([2H])([2H])c1ccc(C(C)(O)C(F)(F)F)cc1-c1cnc2c(N)nc(C(=O)NCC(C)(C)O)cn12 (single isomer, unassigned) [Example 9, 8-Amino-N-(2-hydroxy-2-methylpropyl)-3-(2-(methyl-d3)-5-(1,1,1-trifluoro-2-hydroxypropan-2-yl)phenyl)imidazo[1,2-a]pyrazine-6-carboxamide] |  |  | < 500 nM | 

— patent publication US11186580B2, “Crystalline forms of a phosphoinositide 3-kinase (PI3K) inhibitor” (Incyte Corporation, priority 2018, dated 2021)
